Reference: paper PMC2678990, “Stilbene glycosides are natural product inhibitors of FGF-2-induced angiogenesis” (BMC Cell Biology, 2009)

Columns and labels:
HDMEC [1] = assay: EGF-induced proliferation; type: cell-based, human; settings: EGF 75 ng/ml, 72 h, NS = inhibition less than 50%
Experimental: (§1) Cells were seeded in triplicate at a concentration of 6.0 × 10^5/ml, in 2 ml of complete medium in 6-well plates. […] Growth factors, FGF-2 (25 ng/ml), EGF (75 ng/ml) and VEGF (10 ng/ml) and test compounds at different concentration were added and cells incubated for a further 72 h. Control wells were treated with 5 μl DMSO. Concentration ranges of test compounds and pre-incubation times were based on pilot studies. After 72 h, cells were washed in PBS, detached in 0.05%w/v trypsin in PBS, and counted on a Coulter counter (Coulter Electronics, Hialeah, FL) set to a threshold of 30 μm. Experiments were performed in triplicate and repeated at least twice.

BAEC [2] = assay: FGF-2-induced proliferation; type: cell-based, bovine; settings: Bos taurus, FGF-2 25 ng/ml, 72 h, NS = inhibition less than 50%
Experimental: as §1

HDMEC [3] = assay: FGF-2-induced proliferation; type: cell-based; settings: Homo sapiens, FGF-2 25 ng/ml, 72 h
Experimental: as §1

BAEC [4] = assay: FGF-2-induced migration in wound healing model; type: cell-based, bovine; settings: Bos taurus, FGF-2 25 ng/ml, 18 h
Experimental: Cells (6 × 10^4/ml) were added to a Thermanox cover slip in a 24-well plate in complete medium and incubated for 24–48 h. When confluent, the medium was replaced with DMEM containing 0.1% FCS and incubated for a further 48 h. Cover slips were washed (PBS, × 3), wounded with a sterile razor to produce a straight edged cut and washed in PBS to remove dislodged cells. Cover slips were added to a fresh 24-well plate in 0.1% FCS and incubated with FGF-2 (or other growth factors) and a range of concentrations of test compounds for 18 h. Under these conditions, there was negligible proliferation but measurable migration. Slides were fixed in ethanol (100%), stained with methylene blue and photographed. For each slide, 10 fields of view (2 mm × 1.45 mm) were counted at random. Each experiment was performed in triplicate and at least twice.

BAEC [5] = assay: FGF-2-induced chemotaxis, Boyden chamber assay; type: cell-based, bovine; settings: Bos taurus, 6 h, FGF-2 25 ng/ml
Experimental: (§2) The effect of compounds 1 and 2 on cell migration was examined in vitro using a modified Boyden chamber system with 8.0 μm pore polycarbonate filter inserts (TSL, UK). The filter was coated overnight with 0.1%w/v gelatine, and air-dried. Cells (1 × 10^5) were placed in the upper part of the filter and test compounds at different concentrations with and without growth factors were added to the lower part in SPM. Cells were incubated at 37°C for 6 h and the filter removed and the upper side containing non migrated cells wiped and rinsed. The filters were fixed (4% paraformaldehyde), and stained (Geimsa) and cell migration in duplicate wells was determined by counting cell numbers on the lower surface. Experiments were performed in triplicate and at least two times.

HDMEC [6] = assay: FGF-2-induced chemotaxis, Boyden chamber assay; type: cell-based; settings: Homo sapiens, 6 h, FGF-2 25 ng/ml
Experimental: as §2

BAEC [7] = assay: FGF-2-induced tube formation in Matrigel; type: cell-based, bovine; settings: Matrigel; for IC50: 24 h, FGF-2 25 ng/ml
Experimental: Cells (1.0 × 10^6/ml) were mixed with an equal volume of Matrigel (Becton -Dickinson, Oxford, UK; prepared according to the supplier's instructions) at 4°C. Aliquots (80 μl) were added to the wells of a 48-well plate and allowed to polymerise (1 h) then 500 μl of 15% FCS containing FGF-2 (25 ng/ml; or other growth factors), with or without test compounds was added. The cells were incubated for 24 h at 37°C then fixed in 4% paraformaldehyde (5 min), washed in cold ethanol and the plate air dried. Cells were stained with Geimsa (30 s), air dried and photographed. Ten random fields were selected and the number of closed tubes counted.

BAEC [8] = assay: FGF-2 invasion in Matrigel; type: cell-based, bovine; settings: Bos taurus, FGF-2 25 ng/ml
Experimental: The effect of the test compounds on cell invasion was investigated using a Transwell Boyden chamber system coated with reconstituted growth factor-depleted Matrigel. […] Representative photomicrographs for the effect of compound 1 are shown (Figure 7B).
Figure 7 The effect of compounds 1 (AI) and 2 (AII) on BAEC invasion into a Matrigel layer was studied using the chemoinvasion assay described below. Cells (1.7 × 10^4) were added to the Matrigel coated upper Boyden chamber and the compounds with or without FGF-2 added to the lower chamber. Cell invasion was measured after 24 h and assessed as described below. […] Results are the mean of three experiments. (B) Representative photomicrographs are shown for the effect of compound 1 on BAEC (original magnification × 20).
The procedure described above was repeated and wells having a uniform network of tubes were used to assess invasion into a second layer of Matrigel. Matrigel (100 μl), with and without the test compounds was added to the cells and allowed to polymerise (1 h at 37°C). FCS (15%) was added and the cells incubated for 24–72 h when tube growth into the upper layer was measured as described above.

HDMEC [9] = assay: FGF-2 invasion in Matrigel; type: cell-based, human; settings: Homo sapiens, FGF-2 25 ng/ml
BAEC [10] = assay: Regression of established tubular networks; type: cell-based, bovine; settings: Bos taurus, established FGF-2 tubular network, 24 h
Experimental: Tube regression under the influence of the test compounds was also investigated. Cell suspensions were mixed with Matrigel supplemented with FGF-2 (25 ng/ml) in 15% FCS as described above.

[11] = system: chick chorioallantoic membrane; assay: Chick chorioallantoic membrane (CAM) assay; type: in vivo
Experimental: The angiogenic activity of test compounds was determined using the semi-quantitative chick chorioallantoic assay (CAM) as described previously. To expose the CAM a window was created in the shells of 4 day-old chicken eggs. […] […] This approach enabled calculation of an accumulated response in each group. To photograph the membrane, 2 cm^3 of a 50% emulsion of aqueous paraffin oil containing 2% Tween-80 was injected at the site of application and photographed using a Leitz dissecting microscope. Each experiment was performed five times and statistical significance was determined by the Mann-Whitney U test and the data is expressed as a median value (m).

## COc1cc(C=Cc2ccc(O)cc2)cc(OC2OC(COC3OC(C)C(O)C(O)C3O)C(O)C(O)C2OC2OC(C)C(O)C(O)C2O)c1 (stereo not shown) [Compound 1]
HDMEC [1]
  EGF-induced proliferation, IC50: no significant inhibitory effect
HDMEC [1]; Homo sapiens
  IC50: > 71.5 µM
BAEC [2]
  IC50: 48.9 ± 0.4 µM
HDMEC [3]
  IC50: 42 ± 0.93 µM
BAEC [4]
  IC50: 41.8 ± 0.95 µM
BAEC [5]
  IC50: 30.1 ± 0.85 µM
HDMEC [6]
  IC50: 21.5 ± 0.6 µM
BAEC [7]; Bos taurus
  IC50: 11.1 ± 0.28 µM
BAEC [7]
  IC50: 18.2 ± 0.65 µM
BAEC [7]; without FGF-2
  Effect on tube formation in the absence of FGF-2: no inhibitory effect
BAEC [8]
  IC50: 11.1 ± 0.28 µM
HDMEC [9]
  IC50: 5.8 ± 0.18 µM
BAEC [10]
  IC50: 40 ± 0.2 µM
[11]; 10 μg compound alone, without FGF-2
  Inflammatory or angiogenic response of compound alone: no inflammatory or angiogenic response
[11]; 10 μg compound with FGF-2, 6 days exposure, listed as I
  In vivo CAM assay, inhibition of FGF-2-induced angiogenesis: complete inhibition
[11]; 10 μg compound with FGF-2, scale 0 to 3 or greater
  Degree of angiogenesis (m), median score: 0
